Assay results reported in the supplement of paper PMC10307832.

Key:
Assay in all cases: relative viability (nuclei count vs DMSO), 5 days (fraction); higher = more cells survive
[1] = compound: CC1=C(C(=NN1)C)CC2=C(C3=C(S2)N(C(=O)N(C3=O)C)CC(C)C)C(=O)N4C[C@@H](CO4)O
Method in brief: (§1)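 On vehicle-anchored 1536-well plates, lung cancer cell lines held overnight at 37 °C were pinned with five library-drug doses (not always all listed) spaced by √10. With no medium change over 5 days, they were then fixed, permeabilised and Hoechst-stained in one step and imaged at 4×. MetaXpress counted nuclei, and viability is the median across plates of treated-well over vehicle-well nuclei. Acceptance needed control CV below 25% and at least one doubling.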

IDH-C35 = compound: Cc1ccccc1C(C(=O)NC1CCCCC1)N(C(=O)Cn1ccnc1C)c1cccc(F)c1 [IDH-C35]
Method in brief: as §1

IDH-C35 + Pemetrexed = compound: Cc1ccccc1C(C(=O)NC1CCCCC1)N(C(=O)Cn1ccnc1C)c1cccc(F)c1 [IDH-C35] + Nc1nc2[nH]cc(CCc3ccc(C(=O)N[C@@H](CCC(=O)O)C(=O)O)cc3)c2c(=O)[nH]1 [Pemetrexed] (partner 0.2 µM)
Method in brief: (§2)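 Lung cancer cell lines in 1536-well plates got either a single drug or a fixed anchor-drug dose together with five library-drug doses (not always all listed) in √10 steps, by pin tool, on the day after seeding. Nuclei were counted after 5 days, and relative viability is the treated-to-vehicle ratio of nuclei counts. Values are medians of duplicate plates.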

[2] = compound: CC1=C(C(=NN1)C)CC2=C(C3=C(S2)N(C(=O)N(C3=O)C)CC(C)C)C(=O)N4C[C@@H](CO4)O + Cc1nc(NC(=O)N2CCC[C@H]2C(N)=O)sc1-c1ccnc(C(C)(C)C(F)(F)F)c1 [Alpelisib] (partner 2 µM)
Method in brief: as §2

Row | Cell Line | relative viability ([1]; 0.0025 µM) | relative viability ([1]; 0.007906 µM) | relative viability ([1]; 0.025 µM) | relative viability ([1]; 0.07906 µM) | relative viability ([1]; 0.25 µM) | relative viability (IDH-C35; 0.08 µM) | relative viability (IDH-C35; 0.253 µM) | relative viability (IDH-C35; 0.8 µM) | relative viability (IDH-C35; 2.53 µM) | relative viability (IDH-C35; 8 µM) | relative viability (IDH-C35 + Pemetrexed; first compound 0.08 µM) | relative viability (IDH-C35 + Pemetrexed; first compound 0.253 µM) | relative viability (IDH-C35 + Pemetrexed; first compound 0.8 µM) | relative viability (IDH-C35 + Pemetrexed; first compound 2.53 µM) | relative viability (IDH-C35 + Pemetrexed; first compound 8 µM) | relative viability ([2]; first compound 0.0025 µM) | relative viability ([2]; first compound 0.007906 µM) | relative viability ([2]; first compound 0.025 µM) | relative viability ([2]; first compound 0.07906 µM) | relative viability ([2]; first compound 0.25 µM)
1 | 201T | 1.04 | 0.983 | 0.982 | 0.96 | 0.988 | 0.985 | 0.983 | 1.01 | 1 | 0.958 | 0.329 | 0.351 | 0.367 | 0.343 | 0.321 | 1.04 | 0.995 | 0.996 | 0.971 | 0.949
2 | A549 | 1.04 | 1.11 | 0.931 | 0.953 | 1.04 | 1 | 0.966 | 0.956 | 0.918 | 0.974 |  |  |  |  |  | 0.838 | 0.96 | 0.744 | 0.758 | 0.961
3 | A-427 | 1.04 | 1.1 | 0.996 | 1.05 | 1.1 | 1.06 | 1.01 | 0.926 | 0.991 | 1.03 | 0.952 | 0.981 | 0.899 | 1.02 | 1.04 | 1.02 | 1.21 | 1.08 | 1.03 | 1.07
4 | ABC-1 | 0.978 | 0.921 | 0.714 | 0.994 | 0.902 | 0.953 | 0.938 | 0.91 | 1.03 | 0.992 |  |  |  |  |  | 1.04 | 1.07 | 1.14 | 1.01 | 0.944
5 | BEN | 0.885 | 0.949 | 0.735 | 0.788 | 0.865 | 0.964 | 0.97 | 0.904 | 0.972 | 1.01 | 0.633 | 0.929 | 0.73 | 0.762 | 0.857 | 0.976 | 1.01 | 0.826 | 0.858 | 0.987
6 | CAL-12T | 1.03 | 1.03 | 0.958 | 1.12 | 1.13 | 0.982 | 1.04 | 0.982 | 1.05 | 0.979 | 1.23 | 1.14 | 1.37 | 1.15 | 1.12 | 1.27 | 1.3 | 1.03 | 1.06 | 1.58
7 | Calu-6 | 1.04 | 1.01 | 0.982 | 1.03 | 1.03 | 1.05 | 0.968 | 1.03 | 0.997 | 0.937 |  |  |  |  |  | 1.3 | 0.898 | 0.892 | 0.895 | 1.09
8 | ChaGo-K-1 | 0.989 | 0.98 | 0.901 | 0.969 | 1.06 | 0.994 | 0.941 | 0.993 | 0.966 | 1.02 | 0.244 | 0.27 | 0.273 | 0.265 | 0.248 |  |  |  |  | 
9 | EBC-1 | 1.01 | 1.07 | 0.868 | 1.08 | 1.05 | 1.05 | 1.01 | 0.992 | 0.981 | 0.96 |  |  |  |  |  | 0.973 | 0.973 | 0.765 | 0.822 | 0.814
10 | IA-LM | 0.945 | 0.998 | 0.96 | 1.02 | 1.07 | 0.947 | 1.02 | 0.858 | 0.887 | 0.999 |  |  |  |  |  | 0.832 | 0.812 | 0.858 | 0.749 | 0.991
11 | NCI-H522 | 0.933 | 1.12 | 0.735 | 0.64 | 0.653 | 1.02 | 1.07 | 0.931 | 0.884 | 0.99 | 0.874 | 1.04 | 0.818 | 0.793 | 1.05 |  |  |  |  | 
12 | NCI-H727 | 1.07 | 1 | 1 | 0.875 | 0.964 | 0.81 | 0.98 | 1.01 | 0.979 | 1.01 |  |  |  |  |  | 0.535 | 0.512 | 0.731 | 0.55 | 0.666
13 | NCI-H1299 | 1.01 | 1 | 0.952 | 1.01 | 1.03 | 1.04 | 0.952 | 1.01 | 0.991 | 1.01 |  |  |  |  |  | 1.07 | 1.08 | 1.01 | 1.09 | 1.11
14 | NCI-H1648 | 1.01 | 0.971 | 0.992 | 0.624 | 0.678 | 0.756 | 0.758 | 0.953 | 0.761 | 0.942 |  | 0.758 | 0.712 | 0.807 | 0.529 |  |  |  |  | 
15 | NCI-H1650 | 0.986 | 1.07 | 1.11 | 1.14 | 1.21 | 1.01 | 0.986 | 0.928 | 0.923 | 0.839 | 0.334 | 0.4 | 0.323 | 0.428 | 0.362 |  |  |  |  | 
16 | NCI-H1703 | 1.03 | 0.895 | 0.917 | 0.895 | 0.897 | 0.96 | 1.02 | 0.95 | 0.901 | 0.955 |  |  |  |  |  | 0.366 | 0.211 | 0.32 | 0.309 | 0.299
17 | NCI-H2342 | 1.06 | 0.935 | 1.03 | 0.975 | 0.886 | 1.02 | 0.957 | 0.901 | 0.908 | 0.891 | 0.78 | 0.742 | 0.775 | 0.768 | 0.679 |  |  |  |  | 
18 | SW 900 | 1.06 | 1.16 | 0.835 | 0.888 | 0.97 | 0.871 | 0.849 | 0.768 | 0.834 | 0.897 | 0.51 | 0.459 |  | 0.506 | 0.485 |  |  |  |  | 
